Test results as given in article PMC5152921, “Evolutionary and Functional Diversification of the Vitamin D Receptor-Lithocholic Acid Partnership” (PLoS ONE, 2016).

How the values were obtained:
Test in all cases: Transient transactivation assay (XREM-Luc, HepG2)
Assay type in all cases: cell-based
Details in all cases: 100 μM LCA
Skate VDR = molecular target: T1, Skate VDR (Leucoraja erinacea, UniProt A0A088GDQ7)
T1 sequence (A0A088GDQ7 1-434): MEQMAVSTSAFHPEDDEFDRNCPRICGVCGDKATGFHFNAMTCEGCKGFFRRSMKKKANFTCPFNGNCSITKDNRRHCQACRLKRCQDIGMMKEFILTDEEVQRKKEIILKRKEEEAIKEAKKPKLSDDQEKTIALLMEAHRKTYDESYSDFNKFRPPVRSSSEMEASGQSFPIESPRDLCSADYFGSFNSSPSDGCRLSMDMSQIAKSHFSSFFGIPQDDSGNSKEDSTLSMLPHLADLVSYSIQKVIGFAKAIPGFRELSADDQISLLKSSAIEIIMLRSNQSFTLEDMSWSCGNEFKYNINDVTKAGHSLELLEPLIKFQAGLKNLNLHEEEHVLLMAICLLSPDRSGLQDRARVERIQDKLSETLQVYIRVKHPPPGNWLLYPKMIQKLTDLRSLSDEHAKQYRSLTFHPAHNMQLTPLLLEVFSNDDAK
T1 sequence (P19793 1-462 partner): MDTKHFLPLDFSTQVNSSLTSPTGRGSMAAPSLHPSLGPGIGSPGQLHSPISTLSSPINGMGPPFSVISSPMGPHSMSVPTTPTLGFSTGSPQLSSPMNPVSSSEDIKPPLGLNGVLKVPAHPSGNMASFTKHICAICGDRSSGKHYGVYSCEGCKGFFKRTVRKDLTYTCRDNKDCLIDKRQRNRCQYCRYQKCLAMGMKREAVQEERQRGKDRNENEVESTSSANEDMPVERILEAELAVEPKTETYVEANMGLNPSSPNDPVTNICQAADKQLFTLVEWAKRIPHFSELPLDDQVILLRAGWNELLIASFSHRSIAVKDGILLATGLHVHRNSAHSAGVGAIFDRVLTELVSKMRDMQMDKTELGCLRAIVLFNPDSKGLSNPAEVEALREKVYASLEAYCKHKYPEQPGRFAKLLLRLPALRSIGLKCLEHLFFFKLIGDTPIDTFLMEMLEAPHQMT
Protocol: (§1) HepG2 cells (American Type Culture Collection #HB-8065) were cultured in T75 flasks with vented caps (Corning Life Sciences, Corning, NY) using Minimum Essential Medium (MEM) with phenol red supplemented with 10% fetal bovine serum, 1 mM sodium pyruvate, and 1X MEM non-essential amino acids. Cells were maintained following standard protocols in a 5% CO2 incubator set at 37°C, and split when 80–90% confluent.
(§2) For the transient transactivation assays, HepG2 cells were seeded in 96-well tissue culture plates at a density of 2.5x10^4 cells per well in complete phenol red-free MEM, and allowed to recover overnight. Transfections were performed the following day using Lipofectamine 2000 (Life Technologies, Grand Island, NY) as described previously. For functional comparisons, 89.7 ng/well of full-length pSG5-VDR was co-transfected with 19.2 ng/well human XREM-Luc reporter and 4.5 ng/well of pRL-CMV as an internal luciferase control. Coregulator studies included the addition of 18.3 ng/well of human coregulators (pCDNA-RXRWT, pCDNA-RXRAF2, pSG5-SRC1, pSG5-GRIP1 or pSG5-ACTR) where indicated. […] Controls include 120 nM 1,25D3 as a positive control, and ethanol as a vehicle control. Twenty-four hours post-exposure cells were tested for luciferase activity using the Dual-Glo Luciferase Assay System (Promega Corporation, Madison, WI) according to the manufacturer’s protocols. Luciferase data were first normalized to the pRL-CMV internal luciferase control. […] To calculate the impact of coregulators on VDR transactivation, VDR response in the presence of coregulators was normalized to VDR alone. All experiments were repeated 3 times and conducted as groups of 4 replicate wells. VDR response in the absence of coregulators was analyzed using a 1-way ANOVA followed by Dunnett’s multiple comparisons test. To examine the effects of different coregulators on VDR activation, data were analyzed using a 2-way ANOVA followed by Bonferroni’s multiple comparisons test in GraphPad Prism (GraphPad Inc, San Diego, CA).

Human VDR = molecular target: T2, Human VDR (Homo sapiens, UniProt P11473)
T2 sequence (P11473 1-427): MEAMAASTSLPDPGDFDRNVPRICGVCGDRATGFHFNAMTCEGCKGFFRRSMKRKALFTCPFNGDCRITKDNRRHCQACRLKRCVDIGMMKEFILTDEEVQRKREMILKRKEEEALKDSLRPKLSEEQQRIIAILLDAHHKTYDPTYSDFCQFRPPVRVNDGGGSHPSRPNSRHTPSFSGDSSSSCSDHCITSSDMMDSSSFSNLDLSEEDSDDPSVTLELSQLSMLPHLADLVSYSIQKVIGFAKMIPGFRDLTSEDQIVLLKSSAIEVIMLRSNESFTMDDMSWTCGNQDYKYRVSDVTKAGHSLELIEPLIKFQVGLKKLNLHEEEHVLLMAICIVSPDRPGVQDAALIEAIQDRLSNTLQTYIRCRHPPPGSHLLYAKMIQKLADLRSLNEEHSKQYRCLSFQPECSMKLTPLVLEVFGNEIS
Protocol: as §1, §2

Bichir VDR = molecular target: T3, Bichir VDR (Polypterus senegalus, UniProt A0A088GJ14)
T3 sequence (A0A088GJ14 1-421): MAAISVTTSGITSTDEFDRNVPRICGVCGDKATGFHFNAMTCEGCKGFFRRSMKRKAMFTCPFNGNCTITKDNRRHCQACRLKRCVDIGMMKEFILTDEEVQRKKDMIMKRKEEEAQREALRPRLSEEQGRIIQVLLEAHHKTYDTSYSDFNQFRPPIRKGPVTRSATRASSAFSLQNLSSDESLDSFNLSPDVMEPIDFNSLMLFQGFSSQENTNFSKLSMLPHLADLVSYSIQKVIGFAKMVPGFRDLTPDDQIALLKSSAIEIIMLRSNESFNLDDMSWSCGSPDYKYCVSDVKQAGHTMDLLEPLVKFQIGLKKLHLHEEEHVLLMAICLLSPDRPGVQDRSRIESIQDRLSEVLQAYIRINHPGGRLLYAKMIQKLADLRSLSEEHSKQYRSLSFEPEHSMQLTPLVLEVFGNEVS
T3 sequence (P19793 1-462 partner): T1 sequence (P19793 1-462 partner)
Protocol: as §1, §2

[1] = co-transfected human RXRWT, vs VDR alone

Question: How did the “Effect of exogenous human RXRWT on VDR transactivation” value (“Effect of exogenous human RXRWT” below) (Skate VDR; [1]) turn out when `C[C@H](CCC(=O)O)[C@H]1CC[C@H]2[C@@H]3CC[C@@H]4C[C@H](O)CC[C@]4(C)[C@H]3CC[C@]12C` [LCA, 5β-cholanic acid-3α-ol] was run?
Answer: significantly enhanced transactivation

Question: What about the “Effect of RXRWT+SRC1 or RXRWT+GRIP1 on VDR transactivation” value (Skate VDR; not significantly different from RXRWT individually) of the same molecule?
Answer: Enhanced VDR transactivation was also observed

Question: And the “Effect of exogenous human RXRWT” value (Human VDR; [1])?
Answer: significantly enhanced transactivation

Question: What about the “Effect of RXRWT+SRC1 or RXRWT+GRIP1 on VDR transactivation” value (Human VDR; compared to either coregulator individually) of the same molecule?
Answer: significantly enhanced VDR transactivation

Question: And the “Effect of SRC/p160 co-activators on VDR transactivation” value (Bichir VDR; any SRC/p160 co-activator, presence or absence of RXRWT)?
Answer: No change in transactivation

Question: What about the “Effect of exogenous human RXRWT” value (Bichir VDR; [1]) of the same molecule?
Answer: no effect
